# Source: publication PMC4890880 (ACS infectious diseases, 2016)
# Where two headings read alike, the source gives them in different places.
# Assays:
# [1] = tested on: Plasmodium berghei (Pb-Luc) exoerythrocytic-stage parasites; details: for normalised signal at concentration 10 (first series): concentration 10, first series of dose columns; for normalised signal at concentration 10 (second series): concentration 10, second series of dose columns; for IC50: read-out: PbLuc_IC50
# HepG2-A16-CD81EGFP cells = details: for IC50: read-out: Tox_IC50, HepG2 cytotoxicity
# [2] = sheet "2nd round", Broad compounds, dose response top concentration 10
# [3] = first series, fraction of control
# [4] = second series, fraction of control
# [5] = sheet 2nd round, maximal inhibition in dose response
# [6] = first series of columns, fraction of control
# [7] = second series of columns (replicate), fraction of control
# [8] = 2nd round, maximal inhibition in dose series
smiles,measurement,setting,value
COc1ccc(NC(=O)N(C)C[C@H]2Oc3c(NC(=O)CCCCCC(=O)Nc4ccccc4N)cccc3C(=O)N([C@@H](C)CO)C[C@H]2C)cc1 [BRD-K03339938-001-01-9],normalised signal at concentration 0.000508053 (first series),[1],1.103
same,normalised signal at concentration 0.000508053 (second series),[1],1.02
same,normalised signal at concentration 0.00152416 (first series),[1],0.9211
same,normalised signal at concentration 0.00152416 (second series),[1],0.7891
same,normalised signal at concentration 0.00457247 (first series),[1],0.9975
same,normalised signal at concentration 0.00457247 (second series),[1],0.8582
same,normalised signal at concentration 0.0137174 (first series),[1],0.9216
same,normalised signal at concentration 0.0137174 (second series),[1],0.8637
same,normalised signal at concentration 0.0411523 (first series),[1],0.9804
same,normalised signal at concentration 0.0411523 (second series),[1],0.9024
same,normalised signal at concentration 0.123457 (first series),[1],0.8136
same,normalised signal at concentration 0.123457 (second series),[1],0.9499
same,normalised signal at concentration 0.37037 (first series),[1],0.9387
same,normalised signal at concentration 0.37037 (second series),[1],1.008
same,normalised signal at concentration 1.11111 (first series),[1],0.9514
same,normalised signal at concentration 1.11111 (second series),[1],0.9972
same,normalised signal at concentration 3.33333 (first series),[1],1.011
same,normalised signal at concentration 3.33333 (second series),[1],1.0698
same,normalised signal at concentration 10 (first series),[1],1.4773
same,normalised signal at concentration 10 (second series),[1],1.187
same,IC50,[1]; [2],> 10 µM
same,PbLuc_max_inhibition (%),"[1]; sheet ""2nd round""",21%
same,IC50,"HepG2-A16-CD81EGFP cells; sheet ""2nd round""",> 10 µM
same,Tox_max_inhibition (%),"HepG2-A16-CD81EGFP cells; sheet ""2nd round""",4.46%
C[C@H]1CN([C@@H](C)CO)C(=O)c2cc(C#Cc3ccccc3)cnc2O[C@H]1CN(C)C(=O)c1ccccc1 [BRD-K12503654-001-01-1],normalized signal at concentration 10,"[1]; first series of dose-response columns, fraction of control",0.56
same,normalized signal at concentration 0.000508053,[1]; [3],1.00
same,normalized signal at concentration 0.00152416,[1]; [3],1.04
same,normalized signal at concentration 0.00457247,[1]; [3],1.07
same,normalized signal at concentration 0.0137174,[1]; [3],1.02
same,normalized signal at concentration 0.0411523,[1]; [3],1.04
same,normalized signal at concentration 0.123457,[1]; [3],0.97
same,normalized signal at concentration 0.37037,[1]; [3],0.92
same,normalized signal at concentration 1.11111,[1]; [3],1.13
same,normalized signal at concentration 3.33333,[1]; [3],0.83
same,IC50,"[1]; sheet 2nd round, Broad compounds, dose response",> 10 µM
same,normalized signal at concentration 10,"[1]; second series of dose-response columns, fraction of control",0.51
same,normalized signal at concentration 0.000508053,[1]; [4],1.07
same,normalized signal at concentration 0.00152416,[1]; [4],0.85
same,normalized signal at concentration 0.00457247,[1]; [4],1.01
same,normalized signal at concentration 0.0137174,[1]; [4],0.97
same,normalized signal at concentration 0.0411523,[1]; [4],1.21
same,normalized signal at concentration 0.123457,[1]; [4],1.03
same,normalized signal at concentration 0.37037,[1]; [4],1.11
same,normalized signal at concentration 1.11111,[1]; [4],0.90
same,normalized signal at concentration 3.33333,[1]; [4],0.91
same,PbLuc_max_inhibition (%),[1]; [5],49%
same,IC50,HepG2-A16-CD81EGFP cells; sheet 2nd round,> 10 µM
same,Tox_max_inhibition (%),HepG2-A16-CD81EGFP cells; [5],5.33%
C[C@@H]1CN([C@@H](C)CO)C(=O)c2ccccc2-c2ccccc2CO[C@@H]1CN(C)S(=O)(=O)Cc1ccccc1 [BRD-K06421369-001-01-0],normalized signal at concentration 0.000508053,[1]; [6],1.055
same,normalized signal at concentration 0.00152416,[1]; [6],1.041
same,normalized signal at concentration 0.00457247,[1]; [6],0.8367
same,normalized signal at concentration 0.0137174,[1]; [6],0.8756
same,normalized signal at concentration 0.0411523,[1]; [6],0.8835
same,normalized signal at concentration 0.123457,[1]; [6],1.014
same,normalized signal at concentration 0.37037,[1]; [6],0.8794
same,normalized signal at concentration 1.11111,[1]; [6],0.8244
same,normalized signal at concentration 3.33333,[1]; [6],1.118
same,normalized signal at concentration 10,[1]; [6],0.9941
same,IC50,"[1]; sheet 2nd round, Pb-Luc exoerythrocytic stage, 10-point dose response, top concentration 10",> 10 µM
same,normalized signal at concentration 0.000508053,[1]; [7],0.9052
same,normalized signal at concentration 0.00152416,[1]; [7],1.004
same,normalized signal at concentration 0.00457247,[1]; [7],1.069
same,normalized signal at concentration 0.0137174,[1]; [7],0.9457
same,normalized signal at concentration 0.0411523,[1]; [7],0.8932
same,normalized signal at concentration 0.123457,[1]; [7],1.033
same,normalized signal at concentration 0.37037,[1]; [7],1.094
same,normalized signal at concentration 1.11111,[1]; [7],1.104
same,normalized signal at concentration 3.33333,[1]; [7],1.032
same,normalized signal at concentration 10,[1]; [7],0.8304
same,PbLuc_max_inhibition (%),[1]; [5],18%
same,IC50,HepG2-A16-CD81EGFP cells; sheet 2nd round,> 10 µM
same,Tox_max_inhibition (%),HepG2-A16-CD81EGFP cells; [5],8.54%
N#C[C@@H]1[C@H](c2ccccc2C2=CCCC2)[C@H](CO)N1C(=O)C1CCOCC1 [BRD-K53180201-001-01-6],PbLuc_max_inhibition (%),[1]; [8],21%
same,normalized signal at 0.000508053 (first series),"[1]; concentration 0.000508053, first replicate series, fraction of control",1.0312
same,normalized signal at 0.000508053 (second series),"[1]; concentration 0.000508053, second replicate series, fraction of control",0.7931
same,normalized signal at 0.00152416 (first series),"[1]; concentration 0.00152416, first replicate series, fraction of control",1.021
same,normalized signal at 0.00152416 (second series),"[1]; concentration 0.00152416, second replicate series, fraction of control",0.9501
same,normalized signal at 0.00457247 (first series),"[1]; concentration 0.00457247, first replicate series, fraction of control",0.8781
same,normalized signal at 0.00457247 (second series),"[1]; concentration 0.00457247, second replicate series, fraction of control",0.9105
same,normalized signal at 0.0137174 (first series),"[1]; concentration 0.0137174, first replicate series, fraction of control",0.9372
same,normalized signal at 0.0137174 (second series),"[1]; concentration 0.0137174, second replicate series, fraction of control",0.8749
same,normalized signal at 0.0411523 (first series),"[1]; concentration 0.0411523, first replicate series, fraction of control",0.9703
same,normalized signal at 0.0411523 (second series),"[1]; concentration 0.0411523, second replicate series, fraction of control",1.2503
same,normalized signal at 0.123457 (first series),"[1]; concentration 0.123457, first replicate series, fraction of control",0.9995
same,normalized signal at 0.123457 (second series),"[1]; concentration 0.123457, second replicate series, fraction of control",1.034
same,normalized signal at 0.37037 (first series),"[1]; concentration 0.37037, first replicate series, fraction of control",0.9827
same,normalized signal at 0.37037 (second series),"[1]; concentration 0.37037, second replicate series, fraction of control",0.991
same,normalized signal at 1.11111 (first series),"[1]; concentration 1.11111, first replicate series, fraction of control",1.008
same,normalized signal at 1.11111 (second series),"[1]; concentration 1.11111, second replicate series, fraction of control",0.8686
same,normalized signal at 3.33333 (first series),"[1]; concentration 3.33333, first replicate series, fraction of control",0.9463
same,normalized signal at 3.33333 (second series),"[1]; concentration 3.33333, second replicate series, fraction of control",0.9769
same,normalized signal at 10 (first series),"[1]; concentration 10, first replicate series, fraction of control",1.181
same,normalized signal at 10 (second series),"[1]; concentration 10, second replicate series, fraction of control",1.122
same,IC50,"[1]; 2nd round, Broad DOS compounds, unit not printed (dose series head 10 to 0.000508053)",> 10 µM
same,Tox_max_inhibition (%),HepG2-A16-CD81EGFP cells; [8],7%
same,IC50,"HepG2-A16-CD81EGFP cells; 2nd round, unit inferred",> 10 µM
COc1ccc2c3c([nH]c2c1)[C@H](CO)N(Cc1ccccc1)CC31CN(C(=O)c2ccccn2)C1 [BRD-K93348054-001-01-9],normalised signal at concentration 0.000508053 (first series),[1],1.077
same,normalised signal at concentration 0.000508053 (second series),[1],1.157
same,normalised signal at concentration 0.00152416 (first series),[1],0.9906
same,normalised signal at concentration 0.00152416 (second series),[1],0.8767
same,normalised signal at concentration 0.00457247 (first series),[1],0.8635
same,normalised signal at concentration 0.00457247 (second series),[1],1.079
same,normalised signal at concentration 0.0137174 (first series),[1],1.042
same,normalised signal at concentration 0.0137174 (second series),[1],0.9363
same,normalised signal at concentration 0.0411523 (first series),[1],0.9232
same,normalised signal at concentration 0.0411523 (second series),[1],0.9999
same,normalised signal at concentration 0.123457 (first series),[1],0.9966
same,normalised signal at concentration 0.123457 (second series),[1],1.053
same,normalised signal at concentration 0.37037 (first series),[1],0.8299
same,normalised signal at concentration 0.37037 (second series),[1],0.8736
same,normalised signal at concentration 1.11111 (first series),[1],0.8048
same,normalised signal at concentration 1.11111 (second series),[1],0.7
same,normalised signal at concentration 3.33333 (first series),[1],0.6468
same,normalised signal at concentration 3.33333 (second series),[1],0.6466
same,normalised signal at concentration 10 (first series),[1],0.6758
same,normalised signal at concentration 10 (second series),[1],0.621
same,IC50,[1]; [2],> 10 µM
same,PbLuc_max_inhibition (%),"[1]; sheet ""2nd round""",38%
same,IC50,"HepG2-A16-CD81EGFP cells; sheet ""2nd round""",> 10 µM
same,Tox_max_inhibition (%),"HepG2-A16-CD81EGFP cells; sheet ""2nd round""",18%
